System: 379773-124-R-J2-PDC spheroid viability
Assay: Anticancer human tumor 379773-124-R-J2-PDC patient-derived endometrial carcinoma cell line growth inhibition [POLQ]
Conditions: spheroids with HUVEC and MSC; for IC50: curve of first compound; for viability, T/C: stronger effect = lower value
Protocol: Multicellular complex tumor spheroid response to Polymerase (POL) inhibitors (novobiocin, ART-558, RP6685) in combination with a variety of drugs and investigational agents in selected tumor cell lines
The POL inhibitors (novobiocin, ART-558, and RP6685) were evaluated both individually and in combination with standard of care and investigational anticancer small molecules within a complex spheroid model of solid tumors. . Complex spheroids include a stromal component modeled by human endothelial cells (HUVEC) and fibroblasts modeled by human mesenchymal stem cells (MSCs). The concentration ranges selected for each drug and investigational agent were based upon clinically achievable concentrations if the clinical Cmax of the agent was known.
Compounds. The drugs and investigational agents: novobiocin (NSC847541), ART-558 (NSC835418), RP-6685 (NSC848927), peposertib (NSC802822), ceralasertib (NSC780249), elimusertib (NSC800525), camonsertib (NSC841442), AZD-1390 (NSC803789), olaparib (NSC753686), talazoparib (NSC767125), rucaparib (NSC756644), sotorasib (NSC818433), MRTX-1133 (NSC836407), SN-38 (NSC673596), topotecan (NSC609699), epotoside (NSC141540), doxorubicin (NSC123127), gemcitabine (NSC613327), 5-fluorouracil (NSC19893), paclitaxel (NSC125973), vemurafenib (NSC761431), MSA-2 (NSC828583), SN-011 (NSC837082), adavosertib (NSC754352), prexasertib (NSC758257), carboplatin (NSC241240) and oxaliplatin (NSC266046), were obtained from the National Cancer Institute (NCI) Developmental Therapeutics Program Chemical Repository (21). The FDA-approved anticancer drug set is available from the Developmental Therapeutics Program at https://dtp.cancer.gov/organization/dscb/obtaining/. […] The stock solutions were prepared in dimethyl sulfoxide (DMSO, Sigma-Aldrich, St. Louis, MO, cat. D2650), except for the platinum compounds which were prepared in saline (Quality Biological, Gaithersburg, MD, cat. 114-055-101), at 800-fold the tested concentration and stored at -70 degrees C prior to their use. All drugs and investigational agents were tested over a range starting from a high concentration at or near the clinical Cmax and decreasing in half-log increments. If the clinical Cmax for an agent had not been determined, the highest concentration tested was 10 microM, except for SN-38, which was tested at a high concentration of 1 microM.
Cell Culture. All cells were maintained in an incubator at 37 degrees C and 5% CO2 with 95% humidity. The PDC lines were cultured according to standard operating procedures established by the NCI PDMR (https://pdmr.cancer.gov). Table 3 of the manuscript, lists the cell lines along with the number of the three cell types plated to form the mct-spheroids and media for tumor cell growth. After thawing, all PDC lines, except 997537-175-T-J1-PDC and 415267-285-R-J2-PDC, were cultured in Matrigel-coated flasks prepared with a working solution of 1X Ham's F-12 nutrient mix, without supplementation (Thermo Fisher Scientific, cat. 11765054), 100 U/mL penicillin-streptomycin (Thermo Fisher Scientific, cat. 15140122), and 2.5% Matrigel (Corning Inc., Corning, NY, cat. 354248) for the first three passages. The two PDC lines 997537-175-T-J1-PDC and 415267-285-R-J2-PDC were cultured on uncoated flasks. The 857933-349-R-J2-PDC line was cultured in 6C/Colon 1B media containing advanced DMEM/F-12 (Thermo Fisher Scientific, cat. 12634028), 10 mM HEPES (Thermo Fisher Scientific, cat. 15630080), 1X GlutaMAX supplement (Thermo Fisher Scientific, cat. 35050061), 0.1 mg/mL primocin (InvivoGen, San Diego, CA, cat. ant-pm-2), 10% defined fetal bovine serum, heat inactivated (HyClone Laboratories Inc., Logan, UT, cat. SH30070.03HI), 50% L-WRN conditioned media (ATCC, cat. CRL-3276), 1.25 mM N-Acetyl-L-cysteine (Sigma-Aldrich, cat. A9165), 10 mM nicotinamide (Sigma-Aldrich, cat. N0636), 1X B-27 supplement (Thermo Fisher Scientific, cat. 17504044), 1X N-2 supplement (Thermo Fisher Scientific, cat. […]
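Further: spheroids exposed to drugs for seven days before readout.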
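Wherever viability, T/C is given: percent viability relative to DMSO vehicle control taken as 100%.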

SMILES: CC(=O)O[C@H]1C(=O)[C@@]2(C)[C@H]([C@H](OC(=O)c3ccccc3)[C@]3(O)C[C@H](OC(=O)[C@H](O)[C@@H](NC(=O)c4ccccc4)c4ccccc4)C(C)=C1C3(C)C)[C@]1(OC(C)=O)CO[C@@H]1C[C@@H]2O + Cc1cccc(N(C)C(=O)C2C(O)CCN2c2nc(C)cc(C(F)(F)F)c2C#N)c1
- IC50 (second compound 0.0316 µM): < 9.49 nM
- IC50 (second compound 0.1 µM): < 9.49 nM
- IC50 (second compound 0.316 µM): < 9.49 nM
- IC50 (second compound 1 µM): < 9.49 nM
- IC50 (second compound 3.16 µM): < 9.49 nM
- IC50 (second compound 10 µM): < 9.49 nM
- viability, T/C (second compound 0.0316 µM, first compound 0.00949 µM): 24.4%
- viability, T/C (second compound 0.0316 µM, first compound 0.03 µM): 11.6%
- viability, T/C (second compound 0.0316 µM, first compound 0.0949 µM): 7.9%
- viability, T/C (second compound 0.0316 µM, first compound 0.3 µM): 12.8%
- viability, T/C (second compound 0.0316 µM, first compound 0.949 µM): 13.3%
- viability, T/C (second compound 0.0316 µM, first compound 3 µM): 10.6%
- viability, T/C (second compound 0.1 µM, first compound 0.00949 µM): 25.5%
- viability, T/C (second compound 0.1 µM, first compound 0.03 µM): 8.1%
- viability, T/C (second compound 0.1 µM, first compound 0.0949 µM): 9.59%
- viability, T/C (second compound 0.1 µM, first compound 0.3 µM): 9.63%
- viability, T/C (second compound 0.1 µM, first compound 0.949 µM): 10.5%
- viability, T/C (second compound 0.1 µM, first compound 3 µM): 7.41%
- viability, T/C (second compound 0.316 µM, first compound 0.00949 µM): 27.3%
- viability, T/C (second compound 0.316 µM, first compound 0.03 µM): 9.48%
- viability, T/C (second compound 0.316 µM, first compound 0.0949 µM): 11.7%
- viability, T/C (second compound 0.316 µM, first compound 0.3 µM): 9.83%
- viability, T/C (second compound 0.316 µM, first compound 0.949 µM): 10.2%
- viability, T/C (second compound 0.316 µM, first compound 3 µM): 9.11%
- viability, T/C (second compound 1 µM, first compound 0.00949 µM): 23.7%
- viability, T/C (second compound 1 µM, first compound 0.03 µM): 13.9%
- viability, T/C (second compound 1 µM, first compound 0.0949 µM): 11.9%
- viability, T/C (second compound 1 µM, first compound 0.3 µM): 10.7%
- viability, T/C (second compound 1 µM, first compound 0.949 µM): 10.9%
- viability, T/C (second compound 1 µM, first compound 3 µM): 7.53%
- viability, T/C (second compound 3.16 µM, first compound 0.00949 µM): 15.8%
- viability, T/C (second compound 3.16 µM, first compound 0.03 µM): 8.23%
- viability, T/C (second compound 3.16 µM, first compound 0.0949 µM): 10.8%
- viability, T/C (second compound 3.16 µM, first compound 0.3 µM): 11.8%
- viability, T/C (second compound 3.16 µM, first compound 0.949 µM): 10.8%
- viability, T/C (second compound 3.16 µM, first compound 3 µM): 12%
- viability, T/C (second compound 10 µM, first compound 0.00949 µM): 16.4%
- viability, T/C (second compound 10 µM, first compound 0.03 µM): 10.1%
- viability, T/C (second compound 10 µM, first compound 0.0949 µM): 9.57%
- viability, T/C (second compound 10 µM, first compound 0.3 µM): 10.7%
- viability, T/C (second compound 10 µM, first compound 0.949 µM): 10.5%
- viability, T/C (second compound 10 µM, first compound 3 µM): 7.56%
